The results in this text go back to ChEMBL document CHEMBL3992539, “Discovery of a series of N-(5-(quinolin-6-yl)pyridin-3-yl)benzenesulfonamides as PI3K/mTOR dual inhibitors” (Eur J Med Chem, 2017).

As usually defined, the IC50 is the concentration at which inhibition is half-maximal. In general, CL/F refers to the apparent clearance, not corrected for the fraction that reaches the circulation. The term MRT denotes the average time that molecules of a dose stay in the body. Usually AUC(0-t) stands for exposure summed from dosing to a finite time, without extrapolation to infinity. A lower AUC(0-t) goes with less exposure. Usually Cmax stands for the maximum level reached in the sampled fluid or tissue.

Each structure is given as a SMILES string. Calls of active or inactive are those of the source. No cut-off for these calls is given here.

Data set [1] has as its target PI3-kinase p110-alpha/p85-alpha (Homo sapiens, UniProt P42336). In words: Inhibition of PI3K p110alpha/p85alpha (unknown origin) using PIP2 as substrate after 1 hr by luminescent kinase-Glo assay. Type of data set: protein-complex assay.
A further data set concerns PC-3. In words: Antiproliferative activity against human PC3 cells after 72 hrs by SRB assay. Format: functional, cell-based. The following applies: PC-3, 72 h. A general note: In SRB staining, fixed cells bind dye roughly in proportion to their protein.
Another data set concerns HCT-116. Nature of the data set: Antiproliferative activity against human HCT116 cells after 72 hrs by SRB assay. Format: functional, cell-based. The following applies: HCT-116, 72 h.
For the next data set, the target named is PI3K p110 beta/p85 alpha (Homo sapiens, UniProt P42338). In words: Inhibition of recombinant full length human N-terminal His6-tagged PI3K p110beta/p85alpha expressed in baculovirus infected Sf21 cells using PIP2 as substrate after 1 hr by ADP-Glo kinase assay. For orientation: ADP-Glo turns the ADP formed in a reaction into a luminescent signal.
Data set [2] has as its target Phosphatidylinositol 4,5-bisphosphate 3-kinase catalytic subunit gamma isoform (Homo sapiens, UniProt P48736). In words: Inhibition of recombinant full length His-tagged human PI3K p110gamma expressed in baculovirus expression system using PIP2 as substrate after 1 hr by ADP-Glo kinase assay.
In data set [3] the target is T1, Phosphatidylinositol 4,5-bisphosphate 3-kinase catalytic subunit delta isoform (Homo sapiens, UniProt O00329).
T1 sequence (O00329 whole entry): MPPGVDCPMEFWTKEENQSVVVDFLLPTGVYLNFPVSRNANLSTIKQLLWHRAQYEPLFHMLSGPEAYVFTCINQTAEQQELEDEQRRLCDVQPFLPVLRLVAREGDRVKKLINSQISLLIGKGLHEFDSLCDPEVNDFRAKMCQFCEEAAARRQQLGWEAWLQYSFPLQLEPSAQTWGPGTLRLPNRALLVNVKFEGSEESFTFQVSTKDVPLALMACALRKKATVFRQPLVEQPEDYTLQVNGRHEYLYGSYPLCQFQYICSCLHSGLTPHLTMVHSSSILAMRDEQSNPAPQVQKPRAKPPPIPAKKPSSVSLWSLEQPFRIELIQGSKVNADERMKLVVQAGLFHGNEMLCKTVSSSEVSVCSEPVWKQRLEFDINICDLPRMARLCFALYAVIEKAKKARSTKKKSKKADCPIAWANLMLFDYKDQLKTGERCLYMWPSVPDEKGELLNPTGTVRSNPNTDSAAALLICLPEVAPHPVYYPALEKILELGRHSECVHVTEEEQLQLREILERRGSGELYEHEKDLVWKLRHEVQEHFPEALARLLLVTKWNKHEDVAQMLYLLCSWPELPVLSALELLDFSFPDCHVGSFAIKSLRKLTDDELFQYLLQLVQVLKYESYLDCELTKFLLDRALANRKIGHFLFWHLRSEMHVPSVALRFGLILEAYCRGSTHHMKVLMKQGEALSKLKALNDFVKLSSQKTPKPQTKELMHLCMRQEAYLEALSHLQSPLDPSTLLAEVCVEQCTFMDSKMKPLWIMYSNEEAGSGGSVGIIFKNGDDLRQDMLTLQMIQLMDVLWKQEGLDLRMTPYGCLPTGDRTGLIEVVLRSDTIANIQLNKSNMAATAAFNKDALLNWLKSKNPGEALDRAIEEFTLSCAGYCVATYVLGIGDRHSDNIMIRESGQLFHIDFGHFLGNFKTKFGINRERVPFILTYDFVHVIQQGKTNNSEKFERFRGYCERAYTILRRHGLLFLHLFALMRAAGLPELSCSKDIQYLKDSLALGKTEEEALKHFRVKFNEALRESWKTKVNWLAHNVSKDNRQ
In words: Inhibition of PI3K p110delta (unknown origin) using PIP2 as substrate after 1 hr by ADP-Glo kinase assay.

The species entered for another data set is Homo sapiens. In words: Inhibition of PI3K in PTEN null human PC3 cells assessed as reduction in Akt phosphorylation at Ser-473 residue at 100 nM after 3 hrs by Western blot method. Type of data set: cell-based.
Data set [4] addresses Serine/threonine-protein kinase mTOR (Homo sapiens, UniProt P42345). In words: Inhibition of recombinant human N-terminal FLAG-tagged mTOR (1362-end residues) using ULight-4E-BP1 peptide substrate after 1 hr in presence of ATP by Lance Ultra assay.
Data set [5] is described as follows: Plasma clearance in mouse at 5 mg/kg, po by UPLC-MS/MS analysis. Type of data set: ADME, organism-based.
In another data set the test system is Mus musculus. Nature of the data set: Volume of distribution in mouse at 5 mg/kg, po by UPLC-MS/MS analysis. Format: ADME, organism-based. The settings on record: in vivo.
The nature of data set [6]: Mean residence time in mouse at 5 mg/kg, po by UPLC-MS/MS analysis. Format: ADME, organism-based. The following applies: in vivo.
Data set [7] in a line: AUCt in mouse at 5 mg/kg, po by UPLC-MS/MS analysis. The following applies: in vivo. Type of data set: ADME, organism-based.
The nature of data set [8]: Cmax in mouse at 5 mg/kg, po by UPLC-MS/MS analysis. Type of data set: ADME, organism-based. On the set-up: dose 5 mg/kg, route oral. The settings on record: in vivo.
A short description of data set [9]: Terminal half life in mouse at 5 mg/kg, po by UPLC-MS/MS analysis. Type of data set: ADME, organism-based. The settings on record: in vivo, read-out: beta t1/2 (converted).

Chain of PI3-kinase p110-alpha/p85-alpha (P27986 whole entry): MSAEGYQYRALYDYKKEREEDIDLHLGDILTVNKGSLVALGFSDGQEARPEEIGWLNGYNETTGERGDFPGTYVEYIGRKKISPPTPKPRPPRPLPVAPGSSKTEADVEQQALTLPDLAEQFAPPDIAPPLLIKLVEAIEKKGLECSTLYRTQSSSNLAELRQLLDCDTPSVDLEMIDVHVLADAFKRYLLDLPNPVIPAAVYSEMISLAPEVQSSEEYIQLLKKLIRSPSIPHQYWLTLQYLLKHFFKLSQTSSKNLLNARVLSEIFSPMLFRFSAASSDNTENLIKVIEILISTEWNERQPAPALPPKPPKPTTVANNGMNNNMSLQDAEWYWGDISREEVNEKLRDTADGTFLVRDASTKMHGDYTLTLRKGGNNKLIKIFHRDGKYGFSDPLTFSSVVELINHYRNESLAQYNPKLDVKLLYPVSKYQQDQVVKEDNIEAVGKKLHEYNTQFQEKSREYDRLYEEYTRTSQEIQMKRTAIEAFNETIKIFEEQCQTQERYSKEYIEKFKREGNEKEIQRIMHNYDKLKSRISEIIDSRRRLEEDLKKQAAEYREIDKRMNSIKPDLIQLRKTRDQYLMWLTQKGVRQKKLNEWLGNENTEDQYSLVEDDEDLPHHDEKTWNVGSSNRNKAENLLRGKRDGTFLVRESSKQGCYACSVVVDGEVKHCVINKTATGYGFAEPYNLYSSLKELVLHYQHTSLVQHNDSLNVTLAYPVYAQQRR
Chain of PI3-kinase p110-alpha/p85-alpha (P42336 whole entry): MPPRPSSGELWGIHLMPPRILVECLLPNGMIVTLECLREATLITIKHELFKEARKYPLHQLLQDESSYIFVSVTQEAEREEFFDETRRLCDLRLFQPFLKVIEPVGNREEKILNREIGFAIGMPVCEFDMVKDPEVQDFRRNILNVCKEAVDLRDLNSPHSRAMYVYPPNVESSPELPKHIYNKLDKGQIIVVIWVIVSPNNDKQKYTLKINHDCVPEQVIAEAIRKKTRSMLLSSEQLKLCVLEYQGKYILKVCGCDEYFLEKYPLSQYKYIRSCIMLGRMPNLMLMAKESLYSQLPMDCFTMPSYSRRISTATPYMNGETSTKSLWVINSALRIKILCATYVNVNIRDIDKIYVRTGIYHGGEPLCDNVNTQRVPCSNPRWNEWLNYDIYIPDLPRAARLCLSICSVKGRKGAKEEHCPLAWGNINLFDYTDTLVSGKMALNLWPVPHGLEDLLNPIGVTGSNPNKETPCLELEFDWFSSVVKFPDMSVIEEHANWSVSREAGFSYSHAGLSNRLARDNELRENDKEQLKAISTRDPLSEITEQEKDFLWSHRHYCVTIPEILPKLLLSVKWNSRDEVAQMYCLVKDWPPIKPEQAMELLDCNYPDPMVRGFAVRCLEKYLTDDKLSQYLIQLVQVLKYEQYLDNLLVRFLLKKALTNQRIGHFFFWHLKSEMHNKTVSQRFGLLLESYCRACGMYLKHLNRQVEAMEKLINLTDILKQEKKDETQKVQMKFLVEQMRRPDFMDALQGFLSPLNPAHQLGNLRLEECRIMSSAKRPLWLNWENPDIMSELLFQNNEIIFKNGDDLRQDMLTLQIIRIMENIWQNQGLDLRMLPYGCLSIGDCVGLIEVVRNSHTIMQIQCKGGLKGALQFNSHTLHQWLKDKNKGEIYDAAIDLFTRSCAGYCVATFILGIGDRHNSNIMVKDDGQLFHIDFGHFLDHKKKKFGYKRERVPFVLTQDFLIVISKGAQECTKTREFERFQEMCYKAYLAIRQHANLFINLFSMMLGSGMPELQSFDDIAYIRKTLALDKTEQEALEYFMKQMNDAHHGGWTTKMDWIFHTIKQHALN
Chain of PI3K p110 beta/p85 alpha (P27986 whole entry, canonical isoform): as the sequence (P27986 whole entry) above
Chain of PI3K p110 beta/p85 alpha (P42338 whole entry, canonical isoform): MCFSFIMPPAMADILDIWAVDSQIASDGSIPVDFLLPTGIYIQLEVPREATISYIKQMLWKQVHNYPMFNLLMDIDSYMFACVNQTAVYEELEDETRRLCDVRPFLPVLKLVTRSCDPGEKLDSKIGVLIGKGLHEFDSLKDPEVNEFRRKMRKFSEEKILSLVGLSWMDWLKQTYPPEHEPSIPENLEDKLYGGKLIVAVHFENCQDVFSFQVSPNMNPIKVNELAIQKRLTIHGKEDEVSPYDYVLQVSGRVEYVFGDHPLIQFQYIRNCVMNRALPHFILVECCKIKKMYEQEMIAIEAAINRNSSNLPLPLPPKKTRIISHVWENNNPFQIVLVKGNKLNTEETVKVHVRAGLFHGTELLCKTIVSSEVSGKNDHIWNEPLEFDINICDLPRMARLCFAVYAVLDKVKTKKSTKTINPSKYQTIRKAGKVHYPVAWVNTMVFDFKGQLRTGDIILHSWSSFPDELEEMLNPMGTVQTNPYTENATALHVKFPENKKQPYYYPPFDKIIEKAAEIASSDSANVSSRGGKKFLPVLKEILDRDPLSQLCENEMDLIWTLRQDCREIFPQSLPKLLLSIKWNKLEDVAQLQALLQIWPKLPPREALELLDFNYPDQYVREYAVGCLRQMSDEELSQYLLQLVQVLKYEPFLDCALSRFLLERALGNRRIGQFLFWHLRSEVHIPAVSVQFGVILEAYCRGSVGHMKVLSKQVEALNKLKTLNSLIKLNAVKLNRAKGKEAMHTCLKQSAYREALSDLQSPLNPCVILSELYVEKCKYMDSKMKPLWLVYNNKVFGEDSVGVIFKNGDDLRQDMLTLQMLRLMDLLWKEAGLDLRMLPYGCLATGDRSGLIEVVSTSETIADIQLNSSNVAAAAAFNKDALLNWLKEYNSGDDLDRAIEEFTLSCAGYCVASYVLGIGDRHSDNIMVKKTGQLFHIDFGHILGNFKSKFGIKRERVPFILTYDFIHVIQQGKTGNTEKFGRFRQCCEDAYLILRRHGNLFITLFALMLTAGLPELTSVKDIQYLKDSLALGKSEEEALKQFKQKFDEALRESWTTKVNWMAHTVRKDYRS
Chain of Phosphatidylinositol 4,5-bisphosphate 3-kinase catalytic subunit gamma isoform (P48736 whole entry, canonical isoform): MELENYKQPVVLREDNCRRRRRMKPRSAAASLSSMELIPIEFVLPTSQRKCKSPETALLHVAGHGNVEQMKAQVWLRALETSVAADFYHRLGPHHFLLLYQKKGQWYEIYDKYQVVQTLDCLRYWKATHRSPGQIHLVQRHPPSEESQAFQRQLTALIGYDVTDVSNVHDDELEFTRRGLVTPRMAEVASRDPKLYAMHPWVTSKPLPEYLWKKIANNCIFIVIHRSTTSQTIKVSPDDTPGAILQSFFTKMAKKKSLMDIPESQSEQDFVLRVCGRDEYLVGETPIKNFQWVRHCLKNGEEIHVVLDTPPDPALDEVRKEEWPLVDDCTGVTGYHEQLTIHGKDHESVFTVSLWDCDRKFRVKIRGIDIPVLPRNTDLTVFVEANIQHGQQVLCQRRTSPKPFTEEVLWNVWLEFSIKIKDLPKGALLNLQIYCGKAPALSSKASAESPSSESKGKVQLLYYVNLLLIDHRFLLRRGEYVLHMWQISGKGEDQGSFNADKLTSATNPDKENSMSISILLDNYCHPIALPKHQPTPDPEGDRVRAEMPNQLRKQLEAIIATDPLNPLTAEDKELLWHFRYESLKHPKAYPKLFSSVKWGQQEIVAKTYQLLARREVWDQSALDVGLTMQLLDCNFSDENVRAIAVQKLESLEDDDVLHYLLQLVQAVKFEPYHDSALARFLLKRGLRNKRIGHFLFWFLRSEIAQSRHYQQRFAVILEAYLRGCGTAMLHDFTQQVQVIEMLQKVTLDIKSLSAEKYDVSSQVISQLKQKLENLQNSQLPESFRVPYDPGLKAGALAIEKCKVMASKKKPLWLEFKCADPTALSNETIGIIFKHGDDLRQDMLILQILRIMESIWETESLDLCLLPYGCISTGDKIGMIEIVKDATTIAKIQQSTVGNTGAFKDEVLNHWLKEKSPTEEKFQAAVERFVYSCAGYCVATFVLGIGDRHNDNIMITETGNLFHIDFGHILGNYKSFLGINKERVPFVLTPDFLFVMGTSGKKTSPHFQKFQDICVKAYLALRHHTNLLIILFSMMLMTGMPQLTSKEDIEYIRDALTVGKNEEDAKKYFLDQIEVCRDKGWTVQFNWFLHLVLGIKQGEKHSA

Take `COc1ncc(-c2ccc3ncc(NC(=O)CN4CCCC(O)C4)c(OC)c3c2)cc1NS(=O)(=O)c1ccc(F)cc1F` (stereo unspecified): the IC50 was 1.5 nM in [1], 1340 nM in the data set with PC-3 and 1770 nM in the data set with HCT-116.

`COc1ncc(-c2ccc3ncc(NC(=O)CN4CCOCC4)c(OC)c3c2)cc1NS(=O)(=O)c1ccc(C(F)(F)F)cc1`: the figures for the concentration for half-maximal inhibition (IC50) (in data set [1]; in the data set on PC-3; in the data set on HCT-116) were 2.26 nM, 3750 nM and 2520 nM, respectively.

For the molecule `COc1ncc(-c2ccc3ncc(NC(=O)CN4CCOCC4)c(OC)c3c2)cc1NS(=O)(=O)c1ccc(F)cc1F`, the half-maximal inhibitory concentration (IC50) on PI3K p110 beta/p85 alpha turned out to be 3.9 nM; in [1], 1.7 nM; in the data set with PC-3, 80 nM; in the data set on HCT-116 it was 470 nM; in data set [2], 8.4 nM; in data set [3], 0.87 nM. Also, in data set [4], the IC50 stood at 10 nM. Besides, in the data set filed under Homo sapiens, the inhibition result is “Active”. The molecule further had a CL/F in data set [5] of 7 mL/min/kg. The molecule further gave a Vd in the data set with Mus musculus of 1 L/kg. For the same molecule, in [6], the mean residence time (MRT) stood at 2.7 h. The molecule further had an AUC(0-t) in [7] of 11700 ng·h/mL. Further, in data set [8], the maximum concentration (Cmax) worked out at 2950 ng/mL. Further, the half-life in data set [9] was 1.6 h.

With `COc1ncc(-c2ccc3ncc(NC(=O)CN4CCC(O)CC4)c(OC)c3c2)cc1NS(=O)(=O)c1ccc(F)cc1F`, the IC50 in data set [1] was 2 nM; with PC-3, 3210 nM; with HCT-116, 1980 nM.

As for `COc1ncc(-c2ccc3ncc(NC(=O)C4CCCCC4)c(OC)c3c2)cc1NS(=O)(=O)c1ccc(F)cc1F`, the half-inhibitory concentration (IC50) in [1] amounted to 15 nM; in the data set on PC-3, 6630 nM; with HCT-116, 4610 nM.

In the case of `COc1ccc(CNc2cnc3ccc(-c4cnc(OC)c(NS(=O)(=O)c5ccc(F)cc5F)c4)cc3c2OC)cc1`, the figures for the half-maximal inhibitory concentration (IC50) (in [1]; in the data set on PC-3; with HCT-116) were 27 nM, 4520 nM and 10200 nM, respectively.

Consider `Cn1c(=O)n(-c2ccc(C(C)(C)C#N)cc2)c2c3cc(-c4cnc5ccccc5c4)ccc3ncc21` [DACTOLISIB], for which the IC50 with PC-3 was determined as 510 nM; in the data set with HCT-116, 220 nM.

For `COc1ncc(-c2ccc3ncc(NC(C)=O)c(OC)c3c2)cc1NS(=O)(=O)c1ccc(F)cc1F`, the IC50 in data set [1] came to 8.4 nM; in the data set on PC-3, 1240 nM; with HCT-116 it was 550 nM.

For `COc1ncc(-c2ccc3ncc(NCC4CCCCC4)c(OC)c3c2)cc1NS(=O)(=O)c1ccc(F)cc1F`, the results for the IC50 (in data set [1]; in the data set on PC-3; in the data set with HCT-116) were 210 nM, 9000 nM and 13600 nM, respectively.

Take `COc1ncc(-c2ccc3ncc(NCC4CCN(S(C)(=O)=O)CC4)c(OC)c3c2)cc1NS(=O)(=O)c1ccc(F)cc1F`: the IC50 was found to be 4.7 nM in [1], 2850 nM with PC-3 and 1360 nM with HCT-116.

With `CCNc1cnc2ccc(-c3cnc(OC)c(NS(=O)(=O)c4ccc(F)cc4F)c3)cc2c1OC`, the IC50 was determined as 9.4 nM in data set [1], 4820 nM in the data set with PC-3 and 1850 nM in the data set with HCT-116.

Turning to `COc1ncc(-c2ccc3ncc(NC(=O)CN4CCN(C)CC4)c(OC)c3c2)cc1NS(=O)(=O)c1ccc(F)cc1F`, the IC50 in [1] stood at 3.2 nM; in the data set with PC-3, 1730 nM; with HCT-116, 1540 nM.

`COc1ncc(-c2ccc3ncc(NC(=O)CN(C)CCO)c(OC)c3c2)cc1NS(=O)(=O)c1ccc(F)cc1F`: the 50% inhibitory concentration (IC50) in data set [1] worked out at 1.3 nM; with PC-3 it was 2000 nM; in the data set on HCT-116, 1790 nM.

Turning to `COc1ncc(-c2ccc3ncc(NCc4ccc(C(F)(F)F)cc4)c(OC)c3c2)cc1NS(=O)(=O)c1ccc(F)cc1F`, the values for the half-maximal inhibitory concentration (IC50) (in [1]; in the data set on PC-3; in the data set on HCT-116) were 30 nM, 2880 nM and 3220 nM, respectively.

For `COc1ncc(-c2ccc3ncc(NCc4ccccc4)c(OC)c3c2)cc1NS(=O)(=O)c1ccc(F)cc1F`, the figures for the IC50 (in [1]; with PC-3; in the data set with HCT-116) were 36 nM, 4320 nM and 16800 nM, respectively.

In the case of `COc1ncc(-c2ccc3ncc(NCC4CCN(C(C)=O)CC4)c(OC)c3c2)cc1NS(=O)(=O)c1ccc(F)cc1F`, the IC50 in data set [1] came out at 3.7 nM; with PC-3, 2570 nM; in the data set with HCT-116, 1930 nM.

On to `COc1ncc(-c2ccc3ncc(NC(=O)CN4CCOCC4)c(OC)c3c2)cc1NS(=O)(=O)c1ccc(F)cc1`, for which the figures for the IC50 (in [1]; with PC-3; with HCT-116) were 2.7 nM, 1830 nM and 2830 nM, respectively.
